Assay results taken from ChEMBL document CHEMBL4145638 (J Med Chem, 2018).

Columns and labels:
[1] = biological target: T1, Neuraminidase (Influenza A virus, UniProt B4URF0); experiment: Inhibition of Influenza A virus (A/Paris/2590/2009(H1N1)) neuraminidase activity by fluorometric assay
[2] = biological target: Neuraminidase (Influenza A virus (A/Memphis/1/1971(H3N2)), UniProt P03471); experiment: Inhibition of Influenza A virus (A/Paris/908/97 (H3N2)) neuraminidase activity by fluorometric assay
[3] = biological target: T1, Neuraminidase; design: species or system Influenza A virus (A/California/04/2009(H1N1))
[4] = biological target: T1, Neuraminidase; design: species or system A/Babol/36/2005(H3N2)
[5] = in vitro; settings: chicken, chicken embryo fibroblasts
[6] = Drug metabolism in human liver microsomes assessed as (3R,4R,5S)-4-Acetamido-5-((4(diethylamino)benzyl)amino)-3-(pentan-3-yloxy)cyclohex-1-ene-1-carboxylic acid formation in presence of NADPH by LC/MS/MS analysis; format: ADME, microsome
[7] = in vitro; settings: human, liver microsomes
[8] = in vitro; settings: human, liver microsomes; remark: listed apart in the source
[9] = in vitro; settings: human, liver
[10] = in vitro; settings: human, liver microsomes; remark: listed apart in the source
[11] = in vitro; settings: human, liver microsomes; remark: listed apart in the source
[12] = biological target: T1, Neuraminidase
[13] = biological target: T1, Neuraminidase; design: species or system A/Anhui/1/2013(H7N9)
[14] = in vitro; settings: dog, MDCK cells
[15] = system: Influenza A virus; experiment: microbe, parasite or virus in culture; settings: A/Puerto Rico/8/1934(H1N1), MDCK, 48 h
[16] = system: Influenza A virus; experiment: microbe, parasite or virus in culture; settings: MDCK, 48 h
[17] = biological target: T1, Neuraminidase; experiment: Inhibition of Influenza A virus (H1N1) neuraminidase activity
[18] = biological target: Neuraminidase (Influenza A virus (A/Memphis/1/1971(H3N2)), UniProt P03471); experiment: Inhibition of Influenza A virus (H3N2) neuraminidase activity
[19] = system: Mus musculus; experiment: Acute toxicity in Kunming mouse assessed as mortality at 0.5 to 1 g/kg, ig; format: organism-based; settings: in vivo, po
[20] = system: Mus musculus; experiment: Acute toxicity in Kunming mouse assessed as change in body weight at 0.5 to 1 g/kg, ig; format: organism-based; settings: in vivo, po
[21] = Drug level in human liver microsomes treated with Ethyl(3R,4R,5S)-4-acetamido-5-((4-(diethylamino)benzyl)-amino)-3-(pentan-3-yloxy)cyclohex-1-ene-1-carboxylate assessed as compound formation in presence of NADPH by LC/MS/MS analysis; format: ADME, microsome
[22] = system: Influenza A virus
[23] = human, plasma, 2 h, 100 µM
[24] = in vitro; settings: human, plasma
[25] = in vitro; settings: human, plasma; remark: listed apart in the source
[26] = in vitro; settings: human, plasma; remark: listed apart in the source
[27] = in vitro; settings: human, plasma; remark: listed apart in the source
[28] = biological target: T1, Neuraminidase; experiment: Inhibition of Influenza A virus SN33 (H1N1) neuraminidase activity using fluorogenic substrate MU-NANA pre-incubated for 30 mins before fluorogenic substrate addition and measured after 1 hr by spectrofluorometry
[29] = biological target: Neuraminidase (Influenza A virus (A/Memphis/1/1971(H3N2)), UniProt P03471); experiment: Inhibition of Influenza A virus Taiwan/3446/2002 (H3N2) neuraminidase activity using fluorogenic substrate MU-NANA pre-incubated for 30 mins before fluorogenic substrate addition and measured after 1 hr by spectrofluorometry
[30] = in vitro; settings: human, plasma; remark: listed apart in the source

Sequence of Neuraminidase (Influenza A virus (A/Memphis/1/1971(H3N2)), UniProt P03471) (P03471 whole entry): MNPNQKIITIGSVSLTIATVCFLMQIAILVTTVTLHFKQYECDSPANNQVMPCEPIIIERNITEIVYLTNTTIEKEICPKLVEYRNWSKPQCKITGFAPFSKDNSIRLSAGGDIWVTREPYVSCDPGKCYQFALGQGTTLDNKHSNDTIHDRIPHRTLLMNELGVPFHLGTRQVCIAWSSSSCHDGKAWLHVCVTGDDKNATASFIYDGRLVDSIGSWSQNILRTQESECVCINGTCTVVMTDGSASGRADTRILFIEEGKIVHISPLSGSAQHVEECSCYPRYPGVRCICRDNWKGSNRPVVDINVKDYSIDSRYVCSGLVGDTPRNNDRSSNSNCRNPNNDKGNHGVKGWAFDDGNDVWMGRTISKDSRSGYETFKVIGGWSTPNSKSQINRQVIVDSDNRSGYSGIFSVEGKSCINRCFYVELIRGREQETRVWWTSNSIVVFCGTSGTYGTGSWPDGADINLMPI
T1 sequence (B4URF0 whole entry): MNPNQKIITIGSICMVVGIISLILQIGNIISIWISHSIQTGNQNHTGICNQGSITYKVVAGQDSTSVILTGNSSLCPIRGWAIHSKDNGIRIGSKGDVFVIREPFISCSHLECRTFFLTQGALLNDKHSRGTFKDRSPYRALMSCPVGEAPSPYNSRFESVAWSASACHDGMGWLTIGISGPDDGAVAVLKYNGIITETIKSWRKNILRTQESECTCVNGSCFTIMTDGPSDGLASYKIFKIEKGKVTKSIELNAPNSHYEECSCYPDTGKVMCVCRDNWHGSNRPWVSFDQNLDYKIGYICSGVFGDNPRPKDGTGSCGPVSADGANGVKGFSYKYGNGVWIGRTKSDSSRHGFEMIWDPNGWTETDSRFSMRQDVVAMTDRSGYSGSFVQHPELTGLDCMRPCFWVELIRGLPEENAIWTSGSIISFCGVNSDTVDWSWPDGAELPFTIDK

| SMILES | IC50 [3] | IC50 [4] | CC50 at 48 h [5] | IC50 [12] | IC50 [13] | CC50 at 48 h [14] | EC50 [15] | EC50 [16] | further results |
| --- | --- | --- | --- | --- | --- | --- | --- | --- | --- |
| CC(=O)N[C@H]1[C@H]([C@H](O)[C@H](O)CO)OC(C(=O)O)=C(C/C=C/c2ccc(C)cc2)[C@@H]1O | – | – | – | – | – | – | – | – | Ki [1]: 1700 nM; Ki [2]: 219000 nM |
| CCC(CC)O[C@@H]1C=C(C(=O)O)C[C@H](NCc2ccc(-c3cccs3)cc2)[C@H]1NC(C)=O | 21.3 nM | 354 nM | > 200000 nM | – | – | – | – | – | – |
| CCOC(=O)C1=C[C@@H](OC(CC)CC)[C@H](NC(C)=O)[C@@H](NCc2ccc(N(CC)CC)cc2)C1 | – | – | – | – | – | – | – | – | Drug metabolism [6]: Metabolite_Detected; half-life at 10 min [7]: 8.4 min; microsomal CLint at 10 min [8]: 165 µL/min/mg; CLint scaled at 10 min [9]: 149 mL/min/kg; remaining at 1 h [10]: 0.6%; remaining at 1 h [11]: 87.1% |
| CCC(CC)O[C@@H]1C=C(C(=O)O)C[C@H](NCc2ccc(N3CCSCC3)cc2)[C@H]1NC(C)=O | 48.4 nM | 62.6 nM | > 200000 nM | 74.2 nM | 156 nM | > 250000 nM | 4400 nM | 19000 nM | – |
| CCC(CC)O[C@@H]1C=C(C(=O)O)[C@H](n2cc(C(O)CC)nn2)[C@H](N)[C@H]1NC(C)=O (stereo partly drawn) | – | – | – | – | – | – | – | – | Ki [17]: > 100 nM; Ki [18]: 20 nM |
| CCC(CC)O[C@@H]1C=C(C(=O)O)C[C@H](NCc2ccc(N(CC)CC)cc2)[C@H]1NC(C)=O | 0.55 nM | 1.05 nM | > 200000 nM | 0.35 nM | 1.79 nM | > 250000 nM | 70 nM | 1700 nM | Activity [19]: Non-Toxic; Activity [20]: Non-Toxic; Drug metabolism [21]: Metabolite_Detected; EC50 [22]: 610 nM; Stability [23]: 120.7%; half-life at 10 min [7]: > 145 min; microsomal CLint at 10 min [8]: < 9.6 µL/min/mg; CLint scaled at 10 min [9]: < 8.6 mL/min/kg; remaining at 1 h [10]: 82.7%; remaining at 1 h [11]: 95.4%; remaining at 0 min, 100 µM [24]: 100%; remaining at 10 min, 100 µM [25]: 118%; remaining at 0.5 h, 100 µM [26]: 120%; remaining at 1 h, 100 µM [27]: 120% |
| CCC(CC)O[C@@H]1C=C(C(=O)O)C[C@H](NCc2ccc(N(CC)c3ccccc3)cc2)[C@H]1NC(C)=O | 698 nM | 474 nM | > 200000 nM | 560 nM | 2590 nM | – | – | – | – |
| CCC(CC)O[C@@H]1C=C(C(=O)O)C[C@H](NCc2ccc(N(C)c3ccccc3)cc2)[C@H]1NC(C)=O | 29.8 nM | 5.65 nM | > 200000 nM | 2.29 nM | 11.4 nM | > 250000 nM | 1950 nM | 25600 nM | – |
| CCC(CC)O[C@@H]1C=C(C(=O)O)C[C@H](NCc2ccc(N3CCCCC3)cc2)[C@H]1NC(C)=O | 18.6 nM | 17.1 nM | > 200000 nM | 20.7 nM | 40.5 nM | – | – | – | – |
| CCC(CC)O[C@@H]1C=C(C(=O)O)C[C@H](NCc2ccc(-n3cccn3)cc2)[C@H]1NC(C)=O | 297 nM | 869 nM | > 200000 nM | 593 nM | 9120 nM | – | – | – | – |
| CCC(CC)O[C@@H]1C=C(C(=O)O)C[C@H](NCc2ccc(NC(C)=O)cc2)[C@H]1NC(C)=O | – | – | > 200000 nM | – | – | – | – | – | – |
| CCC(CC)O[C@@H]1C=C(C(=O)O)[C@H](n2cc(C(O)CC)nn2)[C@H](NC(=N)N)[C@H]1NC(C)=O (stereo partly drawn) | – | – | – | – | – | – | – | – | Ki [17]: > 100 nM; Ki [18]: 4 nM |
| CC(=O)N[C@H]1[C@H]([C@@H](O)[C@@H](O)CO)OC(C(=O)O)=C[C@@H]1NC(=N)NC(=O)CSc1cccc2ccccc12 | – | – | – | – | – | – | – | – | IC50 [28]: 21 nM; IC50 [29]: 25 nM |
| CCC(CC)O[C@@H]1C=C(C(=O)O)C[C@H](NCc2ccc(N(C)C)cc2)[C@H]1NC(C)=O | 4.09 nM | 4.11 nM | > 200000 nM | 5.74 nM | 8.41 nM | – | – | – | – |
| CCC(CC)O[C@@H]1C=C(C(=O)O)C[C@H](NCc2ccc(-n3cccc3)cc2)[C@H]1NC(C)=O | 59.3 nM | 327 nM | > 200000 nM | 504 nM | 1820 nM | > 250000 nM | 690 nM | 29000 nM | – |
| CCC(CC)O[C@@H]1C=C(C(=O)O)C[C@H](NCc2ccc(Nc3ccccc3)cc2)[C@H]1NC(C)=O | 66.7 nM | 31.1 nM | > 200000 nM | 27.4 nM | 94.2 nM | – | – | – | – |
| CCC(CC)O[C@@H]1C=C(C(=O)O)C[C@H](NCCCNc2cccc(Cl)c2C)[C@H]1NC(C)=O | – | – | – | – | – | – | – | – | IC50 [17]: 0.59 nM; IC50 [18]: 31 nM |
| CCC(CC)O[C@@H]1C=C(C(=O)O)C[C@H](NCc2ccc(N3CCCC3)cc2)[C@H]1NC(C)=O | 2.31 nM | 1.81 nM | > 200000 nM | 2.13 nM | 6.51 nM | > 250000 nM | 220 nM | 2350 nM | – |
| O=C(O)Cc1ccccc1Nc1c(Cl)cccc1Cl [DICLOFENAC] | – | – | – | – | – | – | – | – | half-life at 10 min [7]: 12.3 min; microsomal CLint at 10 min [8]: 112 µL/min/mg; CLint scaled at 10 min [9]: 101 mL/min/kg |
| CCC(CC)O[C@@H]1C=C(C(=O)O)C[C@H](N)[C@H]1NC(C)=O [OSELTAMIVIR CARBOXYLATE] | – | – | > 200000 nM | – | – | > 250000 nM | 40 nM | 900 nM | – |
| CC(C)[N+](C)(CCOC(=O)C1c2ccccc2Oc2ccccc21)C(C)C [PROPANTHELINE BROMIDE] | – | – | – | – | – | – | – | – | remaining at 0 min, 100 µM [24]: 100%; remaining at 10 min, 100 µM [25]: 73.4%; remaining at 0.5 h, 100 µM [26]: 44.6%; remaining at 1 h, 100 µM [27]: 16.8%; remaining at 2 h, 100 µM [30]: 1.8% |
| C[C@]12CC[C@H]3[C@@H](CCC4=CC(=O)CC[C@@]43C)[C@@H]1CC[C@@H]2O [TESTOSTERONE] | – | – | – | – | – | – | – | – | half-life at 10 min [7]: 26.6 min; microsomal CLint at 10 min [8]: 52.1 µL/min/mg; CLint scaled at 10 min [9]: 46.9 mL/min/kg |
| CC(=O)N[C@H]1[C@H]([C@H](O)[C@H](O)CO)OC(C(=O)O)=C[C@@H]1NC(=N)N [ZANAMIVIR] | – | – | > 200000 nM | – | – | > 250000 nM | 50 nM | 270 nM | – |
